Values after ≈ are worked out from the molar mass of the structure shown.
Experiments:
Assay in all cases: MIC
[1] = tested on: C. freundii 1R523; details: Citrobacter freundii, 1R523
[2] = tested on: E. colacae GN7471; details: Table 7
[3] = tested on: E. coli GN5482; details: Escherichia coli, GN5482, E. coli GN5482; Table 7
[4] = tested on: C. freundii 1U692; details: Citrobacter freundii, 1U692
[5] = tested on: P. aeruginosa GN10362; details: Pseudomonas aeruginosa, GN10362
[6] = tested on: P. aeruginosa 4au542; details: Pseudomonas aeruginosa, 4AU542, P. aeruginosa 4au542; Table 7
[7] = tested on: S. marcescens GN10857; details: Serratia marcescens, GN10857, S. marcescens GN10857; Table 7
[8] = tested on: P. vulgaris GN7919; details: Proteus vulgaris, GN7919
[9] = tested on: S. aureus IAA498; format: cell-based; details: Staphylococcus aureus, Table 7
Protocol: (§1) The minimum inhibition concentrations (MIC) of the compounds obtained in the respective examples described above were measured according to the standard method of Japanese Chemotherapy Association.

[10] = tested on: E. cloacae 1V247; format: cell-based; details: Enterobacter cloacae, Table 8
Protocol: as §1

[11] = tested on: C. freundii 1U589; details: Citrobacter freundii, 1U589
[12] = tested on: C. freundii 1R524; details: Citrobacter freundii, 1R524
[13] = tested on: E. coli ML4707; details: Escherichia coli, ML4707, E. coli ML4707; Table 7
[14] = tested on: C. freundii 5D60-1; details: Citrobacter freundii, 5D601
[15] = tested on: P. maltophilia OF247; details: Stenotrophomonas maltophilia, Table 7
[16] = tested on: S. aureus Smith; details: Staphylococcus aureus, Table 7
[17] = tested on: E. cloacae 1V25; details: Enterobacter cloacae
[18] = tested on: E. cloacae 5D52-2; details: Enterobacter cloacae, 5D522
[19] = tested on: P. aeruginosa 5D58-1; details: Pseudomonas aeruginosa, 5D581, P. aeruginosa 5D58-1; Table 7
[20] = tested on: C. freundii 1R526; details: Citrobacter freundii, 1R526
[21] = tested on: E. cloacae 908RN; details: Enterobacter cloacae, E. colacae 908RN, Table 7
[22] = tested on: K. pneumoniae 4at521; details: Klebsiella pneumoniae, 4AT521
[23] = tested on: P. cepacia OF189; details: Burkholderia cepacia, OF189, P. cepacia OF189; Table 7
[24] = tested on: E. cloacae 5D63-2; details: Enterobacter cloacae, 5D632
[25] = tested on: C. freundii 1R527; details: Citrobacter freundii, 1R527
[26] = tested on: C. freundii GN7391; details: Citrobacter freundii, GN7391, C. freundii GN7391; Table 7

SMILES	MIC [1]	MIC [2]	MIC [3]	MIC [4]	MIC [5]	MIC [6]	MIC [7]	MIC [8]	MIC [9]	MIC [10]	MIC [11]	MIC [12]	MIC [13]	MIC [14]	MIC [15]	MIC [16]	MIC [17]	MIC [18]	MIC [19]	MIC [20]	other results
CC(=O)Oc1ccc(C(=O)NNC(=O)C(C)(C)ON=C(C(=O)NC2C(=O)N3C(C(=O)O)=C(CSc4cc(C)nc5nc(C(=O)O)nn45)CS[C@H]23)c2csc(N)n2)cc1OC(C)=O (stereo partly drawn) [Example 45, 7-{2-[2-Amino-1,3-thiazol-4-yl]-2-[1-(3-(3,4-diacetoxybenzoyl)carbazoyl)-1-methylethoxyimino]acetamido}-3-[(2-carboxy-5-methyl-s-triazolo[1,5-a]pyrimidin-7-yl)thiomethyl]-3-cephem-4-carboxylic acid]	0.78 µg/mL (≈ 0.855 µM)	1.56 µg/mL (≈ 1.71 µM)	0.05 µg/mL (≈ 0.0548 µM)	1.56 µg/mL (≈ 1.71 µM)	0.2 µg/mL (≈ 0.219 µM)	0.2 µg/mL (≈ 0.219 µM)	1.56 µg/mL (≈ 1.71 µM)	3.13 µg/mL (≈ 3.43 µM)	25 µg/mL (≈ 27.4 µM)	6.25 µg/mL (≈ 6.85 µM)	3.13 µg/mL (≈ 3.43 µM)	0.78 µg/mL (≈ 0.855 µM)	0.05 µg/mL (≈ 0.0548 µM)	3.13 µg/mL (≈ 3.43 µM)	1.56 µg/mL (≈ 1.71 µM)	12.5 µg/mL (≈ 13.7 µM)	6.25 µg/mL (≈ 6.85 µM)	0.39 µg/mL (≈ 0.428 µM)	0.1 µg/mL (≈ 0.11 µM)	1.56 µg/mL (≈ 1.71 µM)	MIC [21]: 1.56 µg/mL (≈ 1.71 µM); MIC [22]: 0.05 µg/mL (≈ 0.0548 µM); MIC [23]: 0.012 µg/mL (≈ 0.0132 µM); MIC [24]: 0.78 µg/mL (≈ 0.855 µM); MIC [25]: 3.13 µg/mL (≈ 3.43 µM); MIC [26]: 12.5 µg/mL (≈ 13.7 µM)
CC(=O)Oc1ccc(C(=O)NNC(=O)C(C)(C)ON=C(C(=O)NC2C(=O)N3C(C(=O)O)=C(CSc4ccnc5nc(C(=O)O)nn45)CS[C@H]23)c2csc(N)n2)cc1OC(C)=O (stereo partly drawn) [Example 46, 7-{2-[2-Amino-1,3-thiazol-4-yl]-2-[1-(3-(3,4-diacetoxybenzoyl)carbazoyl)-1-methylethoxyimino]acetamido}-3-[(2-carboxy-s-triazolo[1,5-a]pyrimidin-7-yl)thiomethyl]-3-cephem-4-carboxylic acid]	3.13 µg/mL (≈ 3.49 µM)	0.78 µg/mL (≈ 0.869 µM)	0.05 µg/mL (≈ 0.0557 µM)	6.25 µg/mL (≈ 6.96 µM)	0.2 µg/mL (≈ 0.223 µM)	0.39 µg/mL (≈ 0.434 µM)	0.78 µg/mL (≈ 0.869 µM)	12.5 µg/mL (≈ 13.9 µM)	25 µg/mL (≈ 27.8 µM)	25 µg/mL (≈ 27.8 µM)	6.25 µg/mL (≈ 6.96 µM)	3.13 µg/mL (≈ 3.49 µM)	0.05 µg/mL (≈ 0.0557 µM)	12.5 µg/mL (≈ 13.9 µM)	0.78 µg/mL (≈ 0.869 µM)	12.5 µg/mL (≈ 13.9 µM)	25 µg/mL (≈ 27.8 µM)	0.39 µg/mL (≈ 0.434 µM)	0.2 µg/mL (≈ 0.223 µM)	3.13 µg/mL (≈ 3.49 µM)	MIC [21]: 12.5 µg/mL (≈ 13.9 µM); MIC [22]: 0.025 µg/mL (≈ 0.0278 µM); MIC [23]: < 0.006 µg/mL; MIC [24]: 5.25 µg/mL (≈ 5.85 µM); MIC [25]: 3.13 µg/mL (≈ 3.49 µM); MIC [26]: 100 µg/mL (≈ 111 µM)
CC(=O)Oc1ccc(C(=O)NNC(=O)C(C)(C)ON=C(C(=O)NC2C(=O)N3C(C(=O)O)=C(CSc4c(C)c(C)nc5c(C(=O)O)cnn45)CS[C@H]23)c2csc(N)n2)cc1OC(C)=O (stereo partly drawn) [Example 47, 7-{2-[2-Amino-1,3-thiazol-4-yl]-2-[1-(3-(3,4-diacetoxybenzoyl)carbazoyl)-1-methylethoxyimino]acetamido}-3-[(3-carboxy-5,6-dimethylpyrazolo[1,5-a]pyrimidin-7-yl)thiomethyl]-3-cephem-4-carboxylic acid]	0.39 µg/mL (≈ 0.422 µM)	0.39 µg/mL (≈ 0.422 µM)	0.025 µg/mL (≈ 0.027 µM)	0.39 µg/mL (≈ 0.422 µM)	0.39 µg/mL (≈ 0.422 µM)	0.78 µg/mL (≈ 0.843 µM)	0.39 µg/mL (≈ 0.422 µM)	6.26 µg/mL (≈ 6.77 µM)	50 µg/mL (≈ 54.1 µM)	3.13 µg/mL (≈ 3.38 µM)	1.56 µg/mL (≈ 1.69 µM)	0.39 µg/mL (≈ 0.422 µM)	0.025 µg/mL (≈ 0.027 µM)	0.78 µg/mL (≈ 0.843 µM)	0.78 µg/mL (≈ 0.843 µM)	25 µg/mL (≈ 27 µM)	3.13 µg/mL (≈ 3.38 µM)	0.2 µg/mL (≈ 0.216 µM)	0.39 µg/mL (≈ 0.422 µM)	0.39 µg/mL (≈ 0.422 µM)	MIC [21]: 0.78 µg/mL (≈ 0.843 µM); MIC [22]: 0.025 µg/mL (≈ 0.027 µM); MIC [23]: < 0.006 µg/mL; MIC [24]: 0.39 µg/mL (≈ 0.422 µM); MIC [25]: 0.78 µg/mL (≈ 0.843 µM); MIC [26]: 1.56 µg/mL (≈ 1.69 µM)
